# Legend:
# Type in all cases: functional
# Xanthomonas campestris = assay: Antibacterial activity against Xanthomonas campestris
# Xanthomonas oryzae = assay: Antibacterial activity against Xanthomonas oryzae
# Escherichia coli [1] = assay: Antibacterial activity against Escherichia coli
# Staphylococcus aureus [2] = assay: Antibacterial activity against methicillin-resistant Staphylococcus aureus
# Bacillus subtilis [3] = assay: Antibacterial activity against Bacillus subtilis
# Staphylococcus aureus [4] = assay: Antibacterial activity against Staphylococcus aureus
# Staphylococcus aureus [5] = assay: Antimicrobial activity against Staphylococcus aureus ATCC 29213 assessed as reduction in microbial growth incubated for 16 hrs by CLSI protocol based Mueller-Hinton broth micro-dilution method
# [6] = system: Staphylococcus epidermidis; assay: Antimicrobial activity against Staphylococcus epidermidis ATCC 12228 assessed as reduction in microbial growth incubated for 16 hrs by CLSI protocol based Mueller-Hinton broth micro-dilution method
# Staphylococcus aureus [7] = assay: Antibacterial activity against Staphylococcus aureus ATCC 25923 assessed as reduction in microbial growth
# Bacillus subtilis [8] = assay: Antibacterial activity against Bacillus subtilis ATCC 6633 assessed as reduction in microbial growth
# Staphylococcus aureus [9] = assay: Antibacterial activity against Staphylococcus aureus ATCC 33592 assessed as reduction in microbial growth
# Bacillus cereus [10] = assay: Antibacterial activity against Bacillus cereus ATCC 11778 assessed as reduction in bacterial growth
# Bacillus cereus [11] = assay: Antibacterial activity against Bacillus cereus
# Escherichia coli [12] = assay: Antibacterial activity against […] Escherichia coli ATCC 25922 assessed as reduction in bacterial growth measured for 12 hrs by CLSI protocol based broth microdilution method
# Enterococcus faecalis = assay: Antibacterial activity against Vancomycin-resistant Enterococcus faecalis ATCC 51299
# Staphylococcus aureus [13] = assay: Antibacterial activity against Staphylococcus aureus ATCC 33591
# Streptococcus suis = assay: Antibacterial activity against Streptococcus suis SC19 assessed as reduction in bacterial growth by CLSI protocol based MHB micro-silution method
# Staphylococcus aureus [14] = assay: Antibacterial activity against Staphylococcus aureus ATCC 25923 assessed as reduction in bacterial growth by CLSI protocol based MHB micro-silution method
smiles,measurement,setting,value
CO[C@H]1/C=C\C=C(/C)C(=O)NC2=CC(=O)C(O)=C(C[C@@H](C)C[C@H](OC)[C@H](O)[C@@H](C)/C=C(\C)[C@@H]1OC(N)=O)C2=O,MIC,Xanthomonas campestris,0.25 µg/mL
same,MIC,Xanthomonas oryzae,0.125 µg/mL
CO[C@H]1C[C@H](C)Cc2cc(O)cc(c2)NC(=O)/C(C)=C/CC[C@H](OC)[C@@H](OC(N)=O)/C(C)=C/[C@H](C)[C@H]1O,MIC,Xanthomonas campestris,2.03 µg/mL
same,MIC,Xanthomonas oryzae,0.25 µg/mL
C=CC(C)(C)ON(CCCCCCC(O)CCCCC(O)c1nc(CCCNC(=N)NCC=C(C)C)c(OC)nc1CCCNC(=N)NCC=C(C)C)C(=N)N (stereo unspecified),MIC,Escherichia coli [1],4 µg/mL
same,MIC,Staphylococcus aureus [2],3 µg/mL
COC(=O)/C(C)=C/CC[C@H](OC)[C@@H](OC(N)=O)/C(C)=C/[C@H](C)[C@@H](O)[C@H](C[C@H](C)CC1=C(OC)C(=O)C2=C(NC(=O)[C@@H](C)S2)C1=O)OC,MIC,Bacillus subtilis [3],64 µg/mL
same,MIC,Staphylococcus aureus [4],64 µg/mL
CC(C)c1cc(=O)c2c(cc(O)c3c(=O)c4c(O)c(Br)ccc4c(=O)c32)c1=O,MIC,Staphylococcus aureus [2],0.098 µg/mL
C/C=C1\NC(=O)[C@@H](CC)NC(=O)CNC(=O)[C@@](C)(C(C)=O)NC(=O)[C@H](Cc2c[nH]c3ccc(O)c(OC)c23)NC(=O)c2csc(n2)[C@@H](C)NC(=O)CNC1=O,MIC,Staphylococcus aureus [5],200 µg/mL
same,MIC,[6],12.5 µM
C[C@H]1[C@H](NC(=O)/C(=N\OC(C)(C)C(=O)O)c2csc(N)n2)C(=O)N1S(=O)(=O)O [AZTREONAM],MIC,Escherichia coli [1],0.25 µg/mL
same,MIC,Staphylococcus aureus [2],0.25 µg/mL
COC(=O)[C@]1(O)C[C@@H](C)C[C@H](OC)[C@H](O)[C@@H](C)C/C=C(/C)[C@H](OC(N)=O)[C@@H](OC)/C=C\C=C(/C)C(=O)NC2=CC(=O)O[C@]21O,MIC,Xanthomonas campestris,16.2 µg/mL
same,MIC,Xanthomonas oryzae,2.03 µg/mL
CC[C@H](C)[C@@H]1NC(=O)[C@@H](Cc2c[nH]c3cc(Br)ccc23)NC(=O)[C@@H](Cc2c[nH]c3ccccc23)NC(=O)[C@@H](CO)NC(=O)[C@@H](CCC(=O)O)NC(=O)[C@@H](C(C)C)NC1=O,MIC,Staphylococcus aureus [7],6.3 µg/mL
same,MIC,Bacillus subtilis [8],1.6 µg/mL
same,MIC,Staphylococcus aureus [9],6.3 µg/mL
CC1C[C@@](C)(C(=O)[C@]23C=C[C@@]45C[C@H](C)[C@@](C)(O[C@]42CC(=O)O5)[C@H]3O)OC1=O (stereo partly specified),MIC,Bacillus cereus [10],25 µg/mL
C[C@@H]1C[C@@]2(C)O[C@]1(O)[C@@H]1C(=O)O[C@@]34C[C@@H](C)[C@@]5(C)O[C@@]13C(=C[C@@H]4C5O)C2=O (stereo partly specified),MIC,Bacillus cereus [10],50 µg/mL
CC[C@@H]1NC(=O)[C@@H](CC(C)C)NC(=O)C(NC(=O)[C@@H](CC(=O)C(CC(=O)C(CC(O)c2ccccc2)NC(=O)[C@@H](CCCNC(=O)CCN)NC(=O)CCNC(=O)/C=C\C=C\C(C)C)C(O)CC(=O)O)Cc2ccc(O[C@@H]3OC[C@H](O)[C@H](O)[C@H]3O)cc2)C(C)NC(=O)[C@@H]2CCCN2C(=O)[C@H](C)NC(=O)[C@H](CC(=O)c2ccc(Cl)cc2N)NC(=O)CNC(=O)[C@H](CO)NC(=O)CNC1=O (stereo partly specified),MIC,Escherichia coli [1],> 64 µg/mL
same,MIC,Staphylococcus aureus [4],1 µg/mL
Cc1c(O)cc2c(c1O)C(=O)C(C[C@@]13CCC(C)(C)C[C@]1(C)O3)=C(Cl)C2=O,MIC,Bacillus cereus [11],12.5 µg/mL
same,MIC,Staphylococcus aureus [4],25 µg/mL
CC(=O)OC1[C@H]2C=C3C(=O)[C@@]4(C)C[C@@H](C)[C@](O)(O4)[C@@H]4C(=O)O[C@]25C[C@@H](C)[C@@]1(C)O[C@@]345 (stereo partly specified),MIC,Bacillus cereus [10],> 50 µg/mL
CC(=O)[C@@H](C)N(CCc1c[nH]c2ccccc12)C(C)=O,MIC,Escherichia coli [12],7 µg/mL
CC[C@@H]1NC(=O)[C@@H](CC(C)C)NC(=O)C(NC(=O)[C@@H](CC(=O)C(CC(=O)C(CC(O)c2ccccc2)NC(=O)[C@@H](CCCN)NC(=O)CCNC(=O)/C=C\C=C\C(C)C)C(O)CC(=O)O)Cc2ccc(O[C@@H]3OC[C@H](O)[C@H](O)[C@H]3O)cc2)C(C)NC(=O)[C@@H]2CCCN2C(=O)[C@H](C)NC(=O)[C@H](CC(=O)c2ccc(Cl)cc2N)NC(=O)CNC(=O)[C@H](CO)NC(=O)CNC1=O (stereo partly specified),MIC,Escherichia coli [1],> 64 µg/mL
same,MIC,Staphylococcus aureus [4],0.5 µg/mL
CC1=C(CC2=C(O)C(=O)c3cc(O)c(C)c(O)c3C2=O)CCC(C)(C)C1,MIC,Bacillus cereus [11],6.25 µg/mL
COc1cc2oc3c(O)c4c(c(O)c3c(=O)c2cc1O)-c1c(cc2cc(C)[nH]c(=O)c2c1O)CC4,MIC,Enterococcus faecalis,0.03 µg/mL
same,MIC,Staphylococcus aureus [13],0.03 µg/mL
COC1=C(CC2=C(C)CC(C)(C)CC2)C(=O)c2c(cc(O)c(C)c2O)C1=O,MIC,Bacillus cereus [11],50 µg/mL
CC[C@H](C)[C@@H]1NC(=O)[C@@H](Cc2c[nH]c3cc(Cl)ccc23)NC(=O)[C@@H](Cc2c[nH]c3ccc(Cl)cc23)NC(=O)[C@@H](CO)NC(=O)[C@@H](CCC(=O)O)NC(=O)[C@@H](C(C)C)NC1=O,MIC,Staphylococcus aureus [7],3.1 µg/mL
same,MIC,Bacillus subtilis [8],1.6 µg/mL
same,MIC,Staphylococcus aureus [9],1.6 µg/mL
C/C=C1\NC(=O)[C@@H](C)NC(=O)CNC(=O)[C@@](C)(C(C)=O)NC(=O)[C@H](Cc2c[nH]c3cccc(OC)c23)NC(=O)c2csc(n2)[C@@H](C)NC(=O)CNC1=O,MIC,Staphylococcus aureus [5],12.5 µg/mL
same,MIC,[6],50 µM
COc1cc2oc3c(c(=O)c2cc1O)C(=O)C1=C(CCc2cc4cc(C)n(CCO)c(=O)c4c(O)c21)C3=O,MIC,Enterococcus faecalis,0.25 µg/mL
same,MIC,Staphylococcus aureus [13],0.12 µg/mL
CCC[C@@H](O)Cc1cc(O)cc2c1C(=O)c1c(O)ccc(O)c1C2=O,MIC,Streptococcus suis,1.56 µg/mL
same,MIC,Staphylococcus aureus [14],1.56 µg/mL

# Source: ChEMBL document CHEMBL6182843, “Actinomycetes: Treasure trove for discovering novel antibiotic candidates” (2025)
